Where “and” joins values, the source holds several entries; their conditions need not be identical. Equal entries are not always repeated. Results filed as inconclusive are left out.

For the assay, the system named is BDF1 mice, colon carcinoma 38 sc, T/C %. Nature of the assay: NCI In Vivo Anticancer Drug Screen. Data for tumor model Colon Carcinoma 38 (subcutaneous) in B6D2F1 (BDF1) mice. The settings on record: endpoint: median tumor weight (est.), higher = larger tumour. An outline of the steps:
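T/C readout: treated group (T) measurement over vehicle control group (C) measurement. Endpoint is survival or tumor size in mice bearing a transplanted tumor.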

[1] abbreviates: dose: 25.0 mg/kg/injection, schedule: Q07DX002 (ip), vehicle: Klucel (hydroxypropylcellulose) (HPC).
The mark [2] stands for this setting: dose: 25.0 mg/kg/injection, schedule: Q07DX002 (ip), vehicle: saline with Tween-80.
The mark [3] stands for this setting: dose: 50.0 mg/kg/injection, schedule: Q07DX002 (ip), vehicle: Klucel (hydroxypropylcellulose) (HPC).
Setting [4] is: dose: 50.0 mg/kg/injection, schedule: Q07DX002 (ip), vehicle: saline with Tween-80.
Setting [5] is: dose: 100.0 mg/kg/injection, schedule: Q07DX002 (ip), vehicle: Klucel (hydroxypropylcellulose) (HPC).
The mark [6] stands for this setting: dose: 100.0 mg/kg/injection, schedule: Q07DX002 (ip), vehicle: saline with Tween-80.
The mark [7] stands for this setting: dose: 200.0 mg/kg/injection, schedule: Q07DX002 (ip), vehicle: saline with Tween-80.
[8] abbreviates: dose: 6.25 mg/kg/injection, schedule: Q07DX002 (ip), vehicle: saline with Tween-80.
The mark [9] stands for this setting: dose: 12.5 mg/kg/injection, schedule: Q07DX002 (ip), vehicle: saline with Tween-80.
The mark [10] stands for this setting: dose: 25.0 mg/kg/injection, schedule: Q07DX002 (ip), vehicle: saline.
Setting [11] is: dose: 50.0 mg/kg/injection, schedule: Q07DX002 (ip), vehicle: saline.
[12] abbreviates: dose: 100.0 mg/kg/injection, schedule: Q07DX002 (ip), vehicle: saline.
Where [13] appears, read: dose: 200.0 mg/kg/injection, schedule: Q07DX002 (ip), vehicle: saline.
The mark [14] stands for this setting: dose: 12.5 mg/kg/injection, schedule: Q07DX002 (ip), vehicle: Klucel (hydroxypropylcellulose) (HPC).

Regarding `O=Cc1ccccc1`, the T/C was 77 % of control under setting [1]; 69 % of control under setting [2]; 83 % of control under setting [3]; 77 % of control under setting [4]; 98 % of control under setting [5]; 108 % of control under setting [6]. Moreover, the T/C runs as follows: (dose: 200.0 mg/kg/injection, schedule: Q07DX002 (ip), vehicle: Klucel (hydroxypropylcellulose) (HPC)) 60 % of control; under setting [7], 112 % of control; (dose: 400.0 mg/kg/injection, schedule: Q07DX002 (ip), vehicle: Klucel (hydroxypropylcellulose) (HPC)) 97 % of control.

On to `BrCC[Se]c1ccccc1`, for which the T/C under setting [8] was 158 % of control and 177 % of control; the T/C under setting [9] is 100 % of control and 104 % of control; the T/C under setting [4] was 107 % of control; the T/C under setting [7] was 178 % of control.

For `O=[N+]([O-])c1ccc(Sc2ccncn2)c([N+](=O)[O-])c1`, the T/C under setting [9] was 51 % of control; the T/C under setting [2] is 64 % of control and 74 % of control; the T/C under setting [6] is 43 % of control and 44 % of control.

With `C#CCNC1=C(C)C(=O)C2=C(C1=O)[C@H](COC(N)=O)[C@]1(OC)[C@@H]3N[C@@H]3CN21`, the T/C runs as follows: (dose: 1.5 mg/kg/injection, schedule: Q07DX002 (ip), vehicle: distilled water + Tween-80) 49 % of control; (dose: 3.0 mg/kg/injection, schedule: Q07DX002 (ip), vehicle: distilled water + Tween-80) 78 % of control; (dose: 6.0 mg/kg/injection, schedule: Q07DX002 (ip), vehicle: distilled water + Tween-80) 20 % of control.

`O=C(O)C(CSC(c1ccccc1)(c1ccccc1)c1ccccc1)N=Cc1cccs1` (stereo unspecified): the T/C is, setting by setting: under setting [10], 62 % of control; (dose: 25.0 mg/kg/injection, schedule: Q07DX002 (ip), vehicle: suspension in saline) 103 % of control; under setting [11], 101 % of control; (dose: 50.0 mg/kg/injection, schedule: Q07DX002 (ip), vehicle: suspension in saline) 84 % of control; under setting [12], 87 % of control; (dose: 100.0 mg/kg/injection, schedule: Q07DX002 (ip), vehicle: suspension in saline) 107 % of control. Besides, the T/C under setting [13] is 51 % of control and the T/C (dose: 200.0 mg/kg/injection, schedule: Q07DX002 (ip), vehicle: suspension in saline) is 62 % of control.

For `CCn1cnc2c(=S)nc[nH]c21`, the T/C was 87 % of control under setting [2], 64 % of control under setting [4], 57 % of control under setting [6] and 21 % of control under setting [7].

For `N=C(N)c1ccc(/C=C/c2ccc(C(=N)N)cc2)cc1`, the T/C was 73 % of control under setting [14]; 114 % of control under setting [1]; 67 % of control (dose: 36.0 mg/kg/injection, schedule: Q07DX002 (ip), vehicle: saline with Tween-80).

Take `Cc1cnc(/C=N\NC(N)=S)c2cccc(N)c12`: the T/C was 110 % of control under setting [8]; 88 % of control (dose: 6.25 mg/kg/injection, schedule: Q07DX003 (ip), vehicle: saline with Tween-80); 69 % of control under setting [9]; 111 % of control (dose: 12.5 mg/kg/injection, schedule: Q07DX003 (ip), vehicle: saline with Tween-80); 122 % of control (dose: 25.0 mg/kg/injection, schedule: Q07DX003 (ip), vehicle: saline with Tween-80); 36 % of control and 57 % of control under setting [4]. In addition, under “dose: 50.0 mg/kg/injection, schedule: Q07DX003 (ip), vehicle: saline with Tween-80”, the T/C is 45 % of control.

Regarding `OC(C1CO1)C(O)C1CO1` (stereo unspecified), the T/C by setting is: (dose: 1.0 mg/kg/injection, schedule: Q07DX002 (ip), vehicle: saline) 83 % of control; (dose: 1.0 mg/kg/injection, schedule: Q07DX003 (ip), vehicle: saline) 71 % of control and 81 % of control; (dose: 2.0 mg/kg/injection, schedule: Q07DX002 (ip), vehicle: saline) 114 % of control; (dose: 2.0 mg/kg/injection, schedule: Q07DX003 (ip), vehicle: saline) 70 % of control and 86 % of control; (dose: 4.0 mg/kg/injection, schedule: Q07DX003 (ip), vehicle: saline) 5 % of control and 30 % of control; (dose: 8.0 mg/kg/injection, schedule: Q07DX002 (ip), vehicle: saline) 58 % of control. In addition, for the setting “dose: 8.0 mg/kg/injection, schedule: Q07DX003 (ip), vehicle: saline”, the T/C is 8 % of control and 20 % of control.

On to `CCC1CN2C(=N1)c1ccccc1-c1cc(Cl)ccc12` (stereo unspecified), for which the T/C by setting is: (dose: 3.13 mg/kg/injection, schedule: Q07DX003 (ip), vehicle: suspension in saline) 83 % of control; (dose: 6.25 mg/kg/injection, schedule: Q07DX003 (ip), vehicle: suspension in saline) 93 % of control; (dose: 12.5 mg/kg/injection, schedule: Q07DX003 (ip), vehicle: suspension in saline) 118 % of control.

Take `COc1cc(NS(C)(=O)=O)ccc1Nc1c2ccccc2nc2ccccc12`: the T/C (dose: 0.5 mg/kg/injection, schedule: Q07DX003 (ip), vehicle: other) was 68 % of control; the T/C (dose: 1.0 mg/kg/injection, schedule: Q07DX002 (ip), vehicle: other) is 93 % of control; the T/C (dose: 1.0 mg/kg/injection, schedule: Q07DX003 (ip), vehicle: other) was 88 % of control; the T/C (dose: 2.0 mg/kg/injection, schedule: Q07DX003 (ip), vehicle: other) is 42 % of control; the T/C (dose: 4.0 mg/kg/injection, schedule: Q07DX002 (ip), vehicle: other) is 78 % of control and 91 % of control; the T/C (dose: 4.0 mg/kg/injection, schedule: Q07DX003 (ip), vehicle: other) was 56 % of control. For the same compound, for the setting “dose: 8.0 mg/kg/injection, schedule: Q07DX003 (ip), vehicle: other”, the T/C is 47 % of control.

Regarding `COc1ccc(Cl)[n+]([O-])n1`, the T/C (dose: 6.25 mg/kg/injection, schedule: Q07DX002 (ip), vehicle: Klucel (hydroxypropylcellulose) (HPC)) is 83 % of control; the T/C under setting [14] was 87 % of control; the T/C under setting [1] was 89 % of control; the T/C under setting [3] is 81 % of control; the T/C under setting [5] was 90 % of control.

As for `CC(=O)c1cccc(NC2C(N)C(NC(=O)N(C)C)(C(C)O)C(C)(O)C2(O)COC(=O)c2c(C)cccc2O)c1` (stereo unspecified), the T/C (dose: 1.0 mg/kg/injection, schedule: Q07DX002 (ip), vehicle: suspension in saline) was 110 % of control; the T/C (dose: 2.0 mg/kg/injection, schedule: Q07DX002 (ip), vehicle: suspension in saline) was 152 % of control; the T/C (dose: 4.0 mg/kg/injection, schedule: Q07DX002 (ip), vehicle: suspension in saline) was 104 % of control; the T/C (dose: 8.0 mg/kg/injection, schedule: Q07DX002 (ip), vehicle: suspension in saline) was 71 % of control.

Take `Nc1ccn([C@@H](C=O)O[C@@H](C=O)CO)c(=O)n1`: the T/C is, setting by setting: (dose: 12.5 mg/kg/injection, schedule: Q07DX002 (ip), vehicle: saline) 99 % of control; under setting [10], 71 % of control; under setting [11], 58 % of control; under setting [12], 86 % of control; under setting [13], 73 % of control.

For `O=C(Nc1nncs1)c1cccs1`, the T/C under setting [6] was 87 % of control and 88 % of control.

Consider `O=C1c2ccccc2C(=O)c2c3c(cc(NCCNCCO)c21)N(CCO)CCN3`, for which the T/C by setting is: (dose: 100.0 mg/kg/injection, schedule: Q07DX002 (ip), vehicle: DMSO) 96 % of control; (dose: 200.0 mg/kg/injection, schedule: Q07DX002 (ip), vehicle: DMSO) 105 % of control; (dose: 400.0 mg/kg/injection, schedule: Q07DX002 (ip), vehicle: DMSO) 117 % of control.

`O=C1N[C@@H]([C@H]2CC[C@H](Cl)CN2)C(=O)N[C@H]1[C@H]1CC[C@H](Cl)CN1`: the T/C runs as follows: (dose: 0.31 mg/kg/injection, schedule: Q07DX003 (ip), vehicle: water) 85 % of control; (dose: 0.63 mg/kg/injection, schedule: Q07DX003 (ip), vehicle: water) 110 % of control; (dose: 1.25 mg/kg/injection, schedule: Q07DX003 (ip), vehicle: water) 79 % of control; (dose: 2.5 mg/kg/injection, schedule: Q07DX003 (ip), vehicle: water) 70 % of control; (dose: 5.0 mg/kg/injection, schedule: Q07DX003 (ip), vehicle: water) 6 % of control.

The record behind these values is PubChem BioAssay AID212 (DTP/NCI, 2004).
